Assay results taken from ChEMBL document CHEMBL2074246, “Distinct groups of multidrug resistance modulating agents are distinguished by competition of P-glycoprotein-specific antibodies” (Biochem Biophys Res Commun, 2004).
One block for each compound: values may come before it.

Legend:
Type in all cases: functional, cell-based
[1] = biological target: T1, ATP-dependent translocase ABCB1 (Homo sapiens, UniProt P08183); assay: TP_TRANSPORTER: increase in Calcein-AM intracellular accumulation (Calcein-AM: 0.5 uM, Oligomycin: 5 uM) in MDR1-expressing NIH-3T3 cells; settings: mouse, nih3t3, 5 µM
[2] = biological target: T1, ATP-dependent translocase ABCB1; assay: TP_TRANSPORTER: increase in Calcein-AM intracellular accumulation (Calcein-AM: 0.5 uM, Taxol: 20 uM) in MDR1-expressing NIH-3T3 cells; settings: mouse, nih3t3, 20 µM
[3] = biological target: T1, ATP-dependent translocase ABCB1; assay: TP_TRANSPORTER: increase in Calcein-AM intracellular accumulation (Calcein-AM: 0.5 uM, Prazosin: 10 uM) in MDR1-expressing NIH-3T3 cells; settings: mouse, nih3t3, 10 µM
[4] = biological target: T1, ATP-dependent translocase ABCB1; assay: TP_TRANSPORTER: increase in Calcein-AM intracellular accumulation (Calcein-AM: 0.5 uM, Puromycin: 20 uM) in MDR1-expressing NIH-3T3 cells; settings: mouse, nih3t3, 20 µM
[5] = biological target: T1, ATP-dependent translocase ABCB1; assay: TP_TRANSPORTER: increase in Calcein-AM intracellular accumulation (Calcein-AM: 0.5 uM, Vincristine: 200 uM) in MDR1-expressing NIH-3T3 cells; settings: mouse, nih3t3, 200 µM

T1 sequence (P08183 whole entry): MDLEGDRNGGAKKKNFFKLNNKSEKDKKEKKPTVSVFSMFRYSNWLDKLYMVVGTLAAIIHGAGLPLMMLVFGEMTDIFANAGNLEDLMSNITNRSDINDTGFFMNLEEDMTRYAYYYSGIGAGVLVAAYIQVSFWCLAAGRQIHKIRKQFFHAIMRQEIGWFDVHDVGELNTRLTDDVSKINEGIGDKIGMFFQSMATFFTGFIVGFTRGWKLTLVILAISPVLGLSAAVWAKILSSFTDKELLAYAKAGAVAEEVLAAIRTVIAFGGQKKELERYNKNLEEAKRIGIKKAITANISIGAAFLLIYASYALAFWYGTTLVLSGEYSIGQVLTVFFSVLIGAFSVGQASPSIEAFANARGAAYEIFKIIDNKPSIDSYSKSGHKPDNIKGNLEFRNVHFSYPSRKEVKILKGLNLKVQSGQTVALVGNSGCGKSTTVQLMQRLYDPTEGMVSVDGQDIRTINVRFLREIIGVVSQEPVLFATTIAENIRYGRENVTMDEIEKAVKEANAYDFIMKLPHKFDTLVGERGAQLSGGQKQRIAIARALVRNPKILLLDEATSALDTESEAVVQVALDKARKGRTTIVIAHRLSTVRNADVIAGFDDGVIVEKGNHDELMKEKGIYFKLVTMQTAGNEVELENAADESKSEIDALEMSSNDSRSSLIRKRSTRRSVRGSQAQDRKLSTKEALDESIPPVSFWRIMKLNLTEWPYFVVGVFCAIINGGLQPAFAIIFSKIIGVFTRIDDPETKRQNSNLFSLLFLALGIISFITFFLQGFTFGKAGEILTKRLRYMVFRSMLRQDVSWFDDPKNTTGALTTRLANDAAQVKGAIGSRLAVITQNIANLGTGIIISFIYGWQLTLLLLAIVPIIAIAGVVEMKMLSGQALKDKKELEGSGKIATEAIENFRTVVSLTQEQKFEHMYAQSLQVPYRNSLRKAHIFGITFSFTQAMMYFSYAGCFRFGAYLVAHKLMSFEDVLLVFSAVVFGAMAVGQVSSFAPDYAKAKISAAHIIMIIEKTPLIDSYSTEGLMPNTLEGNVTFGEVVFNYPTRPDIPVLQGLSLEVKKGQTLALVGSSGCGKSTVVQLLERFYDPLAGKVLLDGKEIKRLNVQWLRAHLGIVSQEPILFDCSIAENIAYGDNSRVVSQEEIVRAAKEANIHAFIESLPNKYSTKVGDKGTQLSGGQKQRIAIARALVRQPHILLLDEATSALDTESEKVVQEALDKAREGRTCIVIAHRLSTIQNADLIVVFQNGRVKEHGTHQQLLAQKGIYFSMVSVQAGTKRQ

SMILES: CC[C@H]1/C=C/C=C/C[C@@H](C)[C@H](O)[C@@](C)(O)C(=O)[C@@H](C)[C@H](O)[C@@H](C)C(=O)[C@@H](C)[C@H](O)[C@@H](C)/C=C/C(=O)O[C@@H]2[C@H](C)[C@H](CC1)O[C@]1(CC[C@H](C)[C@H](C[C@@H](C)O)O1)[C@H]2C [OLIGOMYCIN]
Activity [1]: is not an inhibitor [-]

SMILES: COc1cc2nc(N3CCN(C(=O)c4ccco4)CC3)nc(N)c2cc1OC [PRAZOSIN]
Activity [3]: is not an inhibitor [-]

SMILES: COc1ccc(C[C@H](N)C(=O)N[C@H]2[C@@H](O)[C@H](n3cnc4c(N(C)C)ncnc43)O[C@@H]2CO)cc1 [PUROMYCIN]
Activity [4]: is not an inhibitor [-]

The next lines start with the values.

Activity [2]: is not an inhibitor [-]
SMILES: CC(=O)O[C@H]1C(=O)[C@@]2(C)[C@H]([C@H](OC(=O)c3ccccc3)[C@]3(O)C[C@H](OC(=O)[C@H](O)[C@@H](NC(=O)c4ccccc4)c4ccccc4)C(C)=C1C3(C)C)[C@]1(OC(C)=O)CO[C@@H]1C[C@@H]2O [PACLITAXEL]

Activity [5]: is not an inhibitor [-]
SMILES: CC[C@]1(O)C[C@H]2CN(CCc3c([nH]c4ccccc34)[C@@](C(=O)OC)(c3cc4c(cc3OC)N(C=O)[C@H]3[C@@](O)(C(=O)OC)[C@H](OC(C)=O)[C@]5(CC)C=CCN6CC[C@]43[C@@H]65)C2)C1 [VINCRISTINE]
